# Tested on: SARS-CoV-2 (USA-WA1/2020/NR-52281)
# Experiment: Live native virus infection of A549-hACE2 versus A549-hACE2/TMPRSS2 cells
# Type: cell-based
# Settings: virus 1 h, then compound
smiles,measurement,value
CCOC(=O)C=CC(CC1CCNC1=O)NC(=O)C(Cc1ccccc1)NC(=O)C(N)Cc1ccccc1 (centres unmarked) [SM141],efficacy against live virus upon overexpression of TMPRSS2,only a partial loss in efficacy
CCOC(=O)C=CC(CC1CCNC1=O)NC(=O)C(Cc1ccccc1)NC(=O)C(Cc1ccc(F)cc1)NC(=O)OC(C)(C)C (centres unmarked) [SM142],efficacy against live virus upon overexpression of TMPRSS2,only a partial loss in efficacy

# Reference: publication PMC9662648 (Journal of the American Chemical Society, 2022)
